{"source": "ChEMBL document CHEMBL2440112", "about": "“Structure-activity relationships of the aromatic site in novel anticonvulsant pyrrolo[1,2-a]pyrazine derivatives” (Bioorg Med Chem Lett, 2013)", "key": {"Mus musculus [1]": {"system": "Mus musculus", "assay": "Anticonvulsant activity in albino mouse assessed as protection against maximal electroshock-induced seizures at 100 mg/kg, ip after 4 hrs", "assay_type": "functional, organism-based", "set-up": "dose 100 mg/kg"}, "Mus musculus [2]": {"system": "Mus musculus", "assay": "Anticonvulsant activity in albino mouse assessed as protection against subcutaneous metrazole-induced seizures at 100 mg/kg, ip after 4 hrs", "assay_type": "functional, organism-based", "set-up": "dose 100 mg/kg"}, "Mus musculus [3]": {"system": "Mus musculus", "assay": "Neurotoxicity in albino mouse assessed as minimal motor impairment at 100 mg/kg, ip after 0.5 hrs by rotorod test", "assay_type": "toxicity, organism-based", "set-up": "dose 100 mg/kg, route intraperitoneal", "conditions": "in vivo"}, "Rattus norvegicus": {"system": "Rattus norvegicus", "assay": "Anticonvulsant activity in po dosed albino Sprague-Dawley rat assessed as protection against maximal electroshock-induced seizures after […] to 4 hrs", "assay_type": "functional, organism-based"}, "Mus musculus [4]": {"system": "Mus musculus", "assay": "Anticonvulsant activity in albino mouse assessed as protection against subcutaneous metrazole-induced seizures at 100 mg/kg, ip after 0.5 hrs", "assay_type": "functional, organism-based", "set-up": "dose 100 mg/kg"}, "Mus musculus [5]": {"system": "Mus musculus", "assay": "Anticonvulsant activity in albino mouse assessed as protection against subcutaneous metrazole-induced seizures at 300 mg/kg, ip after 0.5 hrs", "assay_type": "functional, organism-based", "set-up": "dose 300 mg/kg"}, "Mus musculus [6]": {"system": "Mus musculus", "assay": "Anticonvulsant activity in albino mouse assessed as protection against maximal electroshock-induced seizures at 100 mg/kg, ip after 1 hr", "assay_type": "functional, organism-based", "set-up": "dose 100 mg/kg"}, "Mus musculus [7]": {"system": "Mus musculus", "assay": "Neurotoxicity in albino mouse assessed as minimal motor impairment at 100 mg/kg, ip after 4 hrs by rotorod test", "assay_type": "toxicity, organism-based", "set-up": "dose 100 mg/kg, route intraperitoneal", "conditions": "in vivo"}, "Mus musculus [8]": {"system": "Mus musculus", "assay": "Neurotoxicity in albino mouse assessed as minimal motor impairment at 100 mg/kg, ip after 1 hr by rotorod test", "assay_type": "toxicity, organism-based", "set-up": "dose 100 mg/kg, route intraperitoneal", "conditions": "in vivo"}, "Mus musculus [9]": {"system": "Mus musculus", "assay": "Neurotoxicity in albino mouse assessed as minimal motor impairment at 100 mg/kg, ip after 0.25 hrs by rotorod test", "assay_type": "toxicity, organism-based", "set-up": "dose 100 mg/kg, route intraperitoneal", "conditions": "in vivo"}, "Mus musculus [10]": {"system": "Mus musculus", "assay": "Anticonvulsant activity in albino mouse assessed as protection against maximal electroshock-induced seizures at 100 mg/kg, ip after 0.25 hrs", "assay_type": "functional, organism-based", "set-up": "dose 100 mg/kg"}, "Mus musculus [11]": {"system": "Mus musculus", "assay": "Anticonvulsant activity in albino mouse assessed as protection against maximal electroshock-induced seizures at 100 mg/kg, ip after 0.5 hrs", "assay_type": "functional, organism-based", "set-up": "dose 100 mg/kg"}, "Mus musculus [12]": {"system": "Mus musculus", "assay": "Anticonvulsant activity in ip dosed albino mouse assessed as time of peak effect for protection against 6 Hz psychomotor seizure by minimal clonic seizure test", "assay_type": "functional"}, "Mus musculus [13]": {"system": "Mus musculus", "assay": "Anticonvulsant activity in albino mouse assessed as protection against 6 Hz psychomotor seizure at 100 mg/kg, ip after 0.5 hrs by minimal clonic seizure test", "assay_type": "functional, organism-based", "set-up": "dose 100 mg/kg"}, "Mus musculus [14]": {"system": "Mus musculus", "assay": "Anticonvulsant activity in albino mouse assessed as protection against 6 Hz psychomotor seizure at 100 mg/kg, ip after 2 hrs by minimal clonic seizure test", "assay_type": "functional, organism-based", "set-up": "dose 100 mg/kg"}, "[15]": {"assay": "Neurotoxicity in ip dosed albino mouse minimal clonic seizure model assessed as minimal motor impairment by rotorod test", "assay_type": "toxicity, organism-based", "conditions": "in vivo"}, "Mus musculus [16]": {"system": "Mus musculus", "assay": "Anticonvulsant activity in albino mouse assessed as protection against 6 Hz psychomotor seizure at 100 mg/kg, ip after 1 hr by minimal clonic seizure test", "assay_type": "functional, organism-based", "set-up": "dose 100 mg/kg"}, "Mus musculus [17]": {"system": "Mus musculus", "assay": "Anticonvulsant activity in albino mouse assessed as protection against 6 Hz psychomotor seizure at 100 mg/kg, ip after 4 hrs by minimal clonic seizure test", "assay_type": "functional, organism-based", "set-up": "dose 100 mg/kg"}, "Mus musculus [18]": {"system": "Mus musculus", "assay": "Anticonvulsant activity in ip dosed albino mouse assessed as protection against 6 Hz psychomotor seizure by minimal clonic seizure test", "assay_type": "functional"}, "Mus musculus [19]": {"system": "Mus musculus", "assay": "Anticonvulsant activity in albino mouse assessed as protection against 6 Hz psychomotor seizure at 100 mg/kg, ip after 0.25 hrs by minimal clonic seizure test", "assay_type": "functional, organism-based", "set-up": "dose 100 mg/kg"}, "Mus musculus [20]": {"organism": "Mus musculus", "assay": "Protective index, ratio of TD50 for albino mouse minimal clonic seizure model to ED50 for albino mouse assessed as protection against 6 Hz psychomotor seizure", "assay_type": "functional"}}, "note": "Activity calls are given as the source filed them. No cut-off for these calls is given here."}
{"smiles": "Cl.O=C1NC(=O)[C@@H]2CCCN2[C@H]1c1ccccc1Cl", "values": [{"measurement": "Activity", "setting": "Mus musculus [1]", "value": "inactive"}, {"measurement": "Activity", "setting": "Mus musculus [2]", "value": "inactive"}, {"measurement": "Activity", "setting": "Mus musculus [3]", "value": "Non-toxic"}, {"measurement": "Activity", "setting": "Rattus norvegicus", "value": "inactive"}, {"measurement": "Activity", "setting": "Mus musculus [4]", "value": "inactive"}, {"measurement": "Activity", "setting": "Mus musculus [5]", "value": "Active"}, {"measurement": "Activity", "setting": "Mus musculus [6]", "value": "inactive"}, {"measurement": "Activity", "setting": "Mus musculus [7]", "value": "Non-toxic"}, {"measurement": "Activity", "setting": "Mus musculus [8]", "value": "Non-toxic"}, {"measurement": "Activity", "setting": "Mus musculus [9]", "value": "Non-toxic"}, {"measurement": "Activity", "setting": "Mus musculus [10]", "value": "inactive"}, {"measurement": "Activity", "setting": "Mus musculus [11]", "value": "inactive"}]}
{"smiles": "Cc1ccc([C@H]2C(=O)NC(=O)[C@@H]3CCCN23)cc1", "values": [{"measurement": "Activity", "setting": "Mus musculus [1]", "value": "inactive"}, {"measurement": "Activity", "setting": "Mus musculus [2]", "value": "inactive"}, {"measurement": "Activity", "setting": "Mus musculus [3]", "value": "Non-toxic"}, {"measurement": "Time", "setting": "Mus musculus [12]", "value": 0.25, "unit": "h"}, {"measurement": "Activity", "setting": "Rattus norvegicus", "value": "inactive"}, {"measurement": "Activity", "setting": "Mus musculus [13]", "value": "Active"}, {"measurement": "Activity", "setting": "Mus musculus [14]", "value": "inactive"}, {"measurement": "Activity", "setting": "Mus musculus [4]", "value": "inactive"}, {"measurement": "Activity", "setting": "Mus musculus [6]", "value": "inactive"}, {"measurement": "TD50", "setting": "[15]", "value": 167, "unit": "mg/kg"}, {"measurement": "Activity", "setting": "Mus musculus [16]", "value": "Active"}, {"measurement": "Activity", "setting": "Mus musculus [7]", "value": "Non-toxic"}, {"measurement": "Activity", "setting": "Mus musculus [8]", "value": "Non-toxic"}, {"measurement": "Activity", "setting": "Mus musculus [17]", "value": "inactive"}, {"measurement": "ED50", "setting": "Mus musculus [18]", "value": 41.7, "unit": "mg/kg"}, {"measurement": "Activity", "setting": "Mus musculus [9]", "value": "Non-toxic"}, {"measurement": "Activity", "setting": "Mus musculus [19]", "value": "Active"}, {"measurement": "Ratio TD50/ED50", "setting": "Mus musculus [20]", "value": 4}, {"measurement": "Activity", "setting": "Mus musculus [10]", "value": "inactive"}, {"measurement": "Activity", "setting": "Mus musculus [11]", "value": "inactive"}]}
